From US20100120763A1, “IMIDAZO[5,1-C][1,2,4]BENZOTRIAZINE DERIVATIVES AS INHIBITORS OF PHOSPHODIESTERASES” (priority 2008, published 2010)
Read-outs that look alike come from different tables or passages of the source.

Tests used:
PDE10A = target: T1, PDE10A (Homo sapiens, UniProt Q9Y233); experiment: Inhibition of recombinant PDE10A (baculovirus/SF21 system), [3H]-cAMP SPA; type: biochemical
T1 construct: made in house; host or cells: SF21 insect cells (baculovirus)

PDE2A = target: T2, PDE2A (Homo sapiens, UniProt O00408); experiment: Inhibition of recombinant PDE2A (expressed in baculovirus/SF21-cells), [3H]-cAMP SPA; type: biochemical
T2 construct: made in house; host or cells: SF21 insect cells (baculovirus)
In short: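 Membrane fraction of baculovirus/SF21-expressed PDE2A was incubated 30 min at 37° C in Tris-HCl/MgCl2 pH 7.4 with 0.5 μM [3H]-cAMP and 1000 nM cGMP as activator. Product was detected by SPA scintillation. IC50 used a Hill-plot 2-parameter model.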

[1] = recombinant PDE10A1, cytosolic, 0.1 μM [3H]-cAMP, 37° C., 30 minutes, read-out: PDE10A IC50

T1 sequence (Q9Y233 1-779 isoform Q9Y233-1): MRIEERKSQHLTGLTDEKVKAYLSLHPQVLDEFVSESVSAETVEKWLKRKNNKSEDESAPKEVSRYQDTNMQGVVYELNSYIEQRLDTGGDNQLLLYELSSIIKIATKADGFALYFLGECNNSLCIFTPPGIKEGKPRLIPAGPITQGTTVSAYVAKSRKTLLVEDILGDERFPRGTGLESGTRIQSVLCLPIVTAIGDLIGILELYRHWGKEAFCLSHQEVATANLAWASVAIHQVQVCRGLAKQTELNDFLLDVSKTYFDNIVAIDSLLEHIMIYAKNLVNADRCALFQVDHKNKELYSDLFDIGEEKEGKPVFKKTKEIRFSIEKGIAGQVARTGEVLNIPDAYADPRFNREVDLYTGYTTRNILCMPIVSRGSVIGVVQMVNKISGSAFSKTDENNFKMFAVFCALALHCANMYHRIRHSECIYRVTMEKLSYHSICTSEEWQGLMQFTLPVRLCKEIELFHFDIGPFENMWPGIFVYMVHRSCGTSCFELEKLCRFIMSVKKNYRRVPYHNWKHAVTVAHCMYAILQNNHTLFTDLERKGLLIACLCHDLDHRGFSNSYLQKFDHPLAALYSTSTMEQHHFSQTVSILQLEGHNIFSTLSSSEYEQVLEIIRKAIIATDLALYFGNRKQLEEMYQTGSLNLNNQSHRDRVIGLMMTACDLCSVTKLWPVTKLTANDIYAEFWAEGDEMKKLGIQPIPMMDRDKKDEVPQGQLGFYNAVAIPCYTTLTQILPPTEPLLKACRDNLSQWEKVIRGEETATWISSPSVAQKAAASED
T2 sequence (O00408 whole entry): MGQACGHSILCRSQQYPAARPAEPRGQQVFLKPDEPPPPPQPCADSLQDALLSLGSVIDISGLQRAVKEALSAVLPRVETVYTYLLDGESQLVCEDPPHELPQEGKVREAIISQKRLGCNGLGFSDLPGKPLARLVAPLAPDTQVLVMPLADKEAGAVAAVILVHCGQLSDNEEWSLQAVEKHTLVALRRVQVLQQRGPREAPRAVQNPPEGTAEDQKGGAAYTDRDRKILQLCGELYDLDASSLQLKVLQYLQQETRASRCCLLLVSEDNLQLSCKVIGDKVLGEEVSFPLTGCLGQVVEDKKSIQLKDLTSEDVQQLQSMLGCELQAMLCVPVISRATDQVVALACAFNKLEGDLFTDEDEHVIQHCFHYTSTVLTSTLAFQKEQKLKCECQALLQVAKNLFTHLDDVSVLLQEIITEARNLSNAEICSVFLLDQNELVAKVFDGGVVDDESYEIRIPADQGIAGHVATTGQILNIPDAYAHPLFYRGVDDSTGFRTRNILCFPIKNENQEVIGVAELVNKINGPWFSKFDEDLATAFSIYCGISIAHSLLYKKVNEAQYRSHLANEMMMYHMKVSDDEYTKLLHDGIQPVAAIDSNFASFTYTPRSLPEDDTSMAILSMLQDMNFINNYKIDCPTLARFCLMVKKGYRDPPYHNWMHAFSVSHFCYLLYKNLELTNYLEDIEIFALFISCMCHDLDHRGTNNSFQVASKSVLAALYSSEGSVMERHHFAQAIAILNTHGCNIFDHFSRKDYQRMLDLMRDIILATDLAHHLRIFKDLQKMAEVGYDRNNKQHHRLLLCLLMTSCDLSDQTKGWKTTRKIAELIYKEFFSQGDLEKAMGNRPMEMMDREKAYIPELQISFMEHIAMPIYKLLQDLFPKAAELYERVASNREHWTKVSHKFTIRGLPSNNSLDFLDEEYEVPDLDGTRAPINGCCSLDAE

| SMILES | IC50 (PDE10A; [1]) | IC50 (PDE2A) | melting point | IC50 (PDE10A) |
| --- | --- | --- | --- | --- |
| CCCc1nc(C)c2nnc3cc(OC)ccc3n12 [Example 2, 7-methoxy-3-methyl-1-propyl-imidazo[5,1-c][1,2,4]benzotriazine] | 401 nM | 546 nM | 159 to 162 °C |  |
| Cc1nc(-c2ccccc2Cl)n2c1nnc1ccc(F)cc12 [Example 13, 1-(2-chlorophenyl)-8-fluoro-3-methylbenzo[e]imidazo[5,1-c][1,2,4]triazine] | 86 nM | 32.6 nM | 189 to 192 °C |  |
| Cc1nc(-c2cc(C(F)(F)F)ccc2F)n2c1nnc1cc(F)ccc12 [Example 30, 7-fluoro-1-(2-fluoro-5-(trifluoromethyl)phenyl)-3-methylbenzo[e]imidazo[5,1-c][1,2,4]triazine] | > 1000 nM | 1790 nM | 205 to 206 °C |  |
| Cc1nc(-c2cc(OC(C)C)ccc2F)n2c1nnc1ccc(Cl)cc12 [Example 43, 8-chloro-1-(2-fluoro-5-isopropoxyphenyl)-3-methylbenzo[e]imidazo[5,1-c][1,2,4]triazine] | > 500 nM | 233 nM | 174 to 177 °C |  |
| CCCOc1ccc(F)c(-c2nc(C)c3nnc4ccc(F)cc4n23)c1 [Example 23, 8-fluoro-1-(2-fluoro-5-propoxyphenyl)-3-methylbenzo[e]imidazo[5,1-c][1,2,4]triazine] | 1540 nM | 59.1 nM | 153 to 155 °C |  |
| Cc1ncccc1-c1nc(C)c2nnc3ccc(F)cc3n12 [Example 12, 8-fluoro-3-methyl-1-(2-methylpyridin-3-yl)benzo[e]imidazo[5,1-c][1,2,4]triazine] | 780 nM | 187 nM | 207 to 210 °C |  |
| Cc1nc(-c2cc(OC(C)C)ccc2F)n2c1nnc1ccc(F)cc12 [Example 20, 8-fluoro-1-(2-fluoro-5-isopropoxyphenyl)-3-methylbenzo[e]imidazo[5,1-c][1,2,4]triazine] | 2290 nM | 473 nM | 148 to 150.5 °C |  |
| COc1ccc2nnc3c(C)nc(-c4cc(OC(C)C)ccc4F)n3c2c1 [Example 44, 1-(2-fluoro-5-isopropoxyphenyl)-8-methoxy-3-methylbenzo[e]imidazo[5,1-c][1,2,4]triazine] | 1550 nM | 121 nM | 204 to 207 °C |  |
| Cc1nc(-c2ccccc2Cl)n2c1nnc1ccc(OCc3ccc(F)cc3)cc12 [Example 187, 1-(2-Chloro-phenyl)-8-(4-fluoro-benzyloxy)-3-methyl-imidazo[5,1-c][1,2,4]benzotriazine] | 24.6 nM | 9.72 nM | 174 to 177 °C |  |
| Cc1nc(-c2ccnn2C)n2c1nnc1ccc(Cl)cc12 [Example 40, 8-chloro-3-methyl-1-(1-methyl-1H-pyrazol-5-yl)benzo[e]imidazo[5,1-c][1,2,4]triazine] | 3940 nM | 1410 nM | 230 to 231 °C |  |
| CCCc1nc(C)c2nnc3ccc(F)cc3n12 [Example 1, 8-fluoro-3-methyl-1-propyl-imidazo[5,1-c][1,2,4]benzotriazine] | 626 nM | 716 nM | 124.5 to 126.5 °C |  |
| Cc1ncn2c1nnc1ccc(F)cc12 [Example 11, 8-fluoro-3-methylbenzo[e]imidazo[5,1-c][1,2,4]triazine] | > 10000 nM | > 10000 nM | 230 °C |  |
| COc1ccccc1-c1nc(C)c2nnc3ccc(F)cc3n12 [Example 16, 8-fluoro-1-(2-methoxyphenyl)-3-methylbenzo[e]imidazo[5,1-c][1,2,4]triazine] | 456 nM | 351 nM | 196 to 198 °C |  |
| Cc1ccccc1-c1nc(C)c2nnc3cc(F)ccc3n12 [Example 28, 7-fluoro-3-methyl-1-o-tolylbenzo[e]imidazo[5,1-c][1,2,4]triazine] | 359 nM | 122 nM | 149 to 152 °C |  |
| Cc1nc(-c2ccnn2C)n2c1nnc1ccc(F)cc12 [Example 15, 8-fluoro-3-methyl-1-(1-methyl-1H-pyrazol-5-yl)benzo[e]imidazo[5,1-c][1,2,4]triazine] | > 5000 nM | > 1000 nM | 217 to 220 °C |  |
| Cc1nc(-c2ccccc2Cl)n2c1nnc1ccc(N3CCOCC3)cc12 [Example 184, 1-(2-Chloro-phenyl)-3-methyl-8-morpholin-4-yl-imidazo[5,1-c][1,2,4]benzotriazine] | 9.77 nM | 6.39 nM | 242 to 245 °C |  |
| CCCCOc1ccc(F)c(-c2nc(C)c3nnc4ccc(F)cc4n23)c1 [Example 22, 1-(5-butoxy-2-fluorophenyl)-8-fluoro-3-methylbenzo[e]imidazo[5,1-c][1,2,4]triazine] | > 500 nM | 37.7 nM | 148 to 151 °C |  |
| COc1cc2nnc3c(C)nc(-c4ccccn4)n3c2cc1OC [Example 50, 7,8-dimethoxy-3-methyl-1-(pyridin-2-yl)benzo[e]imidazo[5,1-c][1,2,4]triazine] | 71.2 nM | 2190 nM | 199 to 202 °C |  |
| CCC(C)c1nc(C)c2nnc3ccc(F)cc3n12 (stereo not drawn) [Example 10, 1-sec-butyl-8-fluoro-3-methylbenzo[e]imidazo[5,1-c][1,2,4]triazine] |  | 1530 nM | 169 to 171.5 °C | 410 nM |
| Cc1nc(-c2cc(Cl)ccc2Cl)n2c1nnc1ccc(Cl)cc12 [Example 37, 8-chloro-1-(2,5-dichlorophenyl)-3-methylbenzo[e]imidazo[5,1-c][1,2,4]triazine] | 77.2 nM | 5.31 nM | 188 to 190 °C |  |
| Cc1ncn2c1nnc1ccc(Cl)cc12 [Example 42, 8-chloro-3-methylbenzo[e]imidazo[5,1-c][1,2,4]triazine] | > 10000 nM | > 10000 nM | 210 °C |  |
